This is an account of results in patent US20260365647A1, “AKT1 MODULATORS” (Alterome Therapeutics, Inc., priority 2022, published 2026).

A word on the IC50: it is the point on the concentration scale where inhibition reaches its midpoint.

For this test, the target named is T1, AKT1-E17K (Homo sapiens, UniProt P31749, E17K).
T1 construct: host or cells: HEK-293 (ATCC CRL-1573)
T1 sequence (P31749 whole entry E17K): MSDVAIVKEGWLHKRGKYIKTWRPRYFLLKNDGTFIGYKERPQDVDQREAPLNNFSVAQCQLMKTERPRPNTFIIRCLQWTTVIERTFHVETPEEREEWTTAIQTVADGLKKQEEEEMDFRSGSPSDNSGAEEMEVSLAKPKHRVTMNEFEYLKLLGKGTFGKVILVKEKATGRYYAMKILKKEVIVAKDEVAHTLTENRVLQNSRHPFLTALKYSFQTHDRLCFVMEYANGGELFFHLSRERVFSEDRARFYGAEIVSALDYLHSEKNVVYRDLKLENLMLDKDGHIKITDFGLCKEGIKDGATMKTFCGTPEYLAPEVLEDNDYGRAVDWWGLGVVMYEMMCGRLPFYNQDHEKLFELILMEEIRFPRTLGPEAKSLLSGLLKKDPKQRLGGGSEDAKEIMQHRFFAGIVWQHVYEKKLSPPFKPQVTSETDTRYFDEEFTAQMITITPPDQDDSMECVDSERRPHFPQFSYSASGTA
The test is described as follows: NanoBRET Target Engagement (TE) Assay. It is filed as cell-based. The procedure, abridged:
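Live cells transiently expressing NanoLuc-AKT1 E17K fusion, incubated 2 h with tracer and compound before substrate plus extracellular NanoLuc inhibitor were added. BRET read at 450/600 nm; EC50 from variable-slope sigmoidal fit of tracer displacement.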
(In general: In BRET a luciferase serves as donor, and the signal depends on an acceptor being close.)
As to `CN(c1ccc(C=O)c(O)c1)C1CCN(Cc2ccc(-n3c(-c4cccnc4N)nc4ccc(-c5ccccc5)nc43)cc2)CC1` [Example 57, 4-((1-(4-(2-(2-Aminopyridin-3-yl)-5-phenyl-3H-imidazo[4,5-b]pyridin-3-yl)benzyl)piperidin-4-yl)(methyl)amino)-2-hydroxybenzaldehyde], the half-inhibitory concentration (IC50) was in the range of 60 to 600 nM.

With `Nc1ncccc1-c1nc2ccc(-c3ccccc3)nc2n1-c1ccc(CN2CCC3(CC2)CCN(c2ccc(C=O)c(O)c2)C3)cc1` [Example 76, 4-(8-(4-(2-(2-Aminopyridin-3-yl)-5-phenyl-3H-imidazo[4,5-b]pyridin-3-yl)benzyl)-2,8-diazaspiro[4.5]decan-2-yl)-2-hydroxybenzaldehyde], the 50% inhibitory concentration (IC50) was 60 to 600 nM.

Consider `Nc1ncccc1-c1nc2ccc(-c3ccccc3)nc2n1-c1ccc(CN2CCC3(CCCN(C(=O)c4ccc(O)c(C=O)c4)C3)C2)cc1` (centres unmarked) [Example 86, 5-(2-(4-(2-(2-Aminopyridin-3-yl)-5-phenyl-3H-imidazo[4,5-b]pyridin-3-yl)benzyl)-2,7-diazaspiro[4.5]decane-7-carbonyl)-2-hydroxybenzaldehyde], for which the concentration for half-maximal inhibition (IC50) is 60 to 600 nM.

`Nc1ncccc1-c1nc2ccc(-c3ccccc3)nc2n1-c1ccc(CN2CCC3(CCCN(c4ccc(C=O)c(O)c4)C3)C2)cc1` (centres unmarked) [Example 88, 4-(2-(4-(2-(2-Aminopyridin-3-yl)-5-phenyl-3H-imidazo[4,5-b]pyridin-3-yl)benzyl)-2,7-diazaspiro[4.5]decan-7-yl)-2-hydroxybenzaldehyde] yielded a 50% inhibitory concentration (IC50) of 60 to 600 nM.

Consider `Nc1ncccc1-c1nc2ccc(-c3ccccc3)nc2n1-c1ccc(CN2C[C@H]3CN(C(=O)c4ccc(C=O)c(O)c4)C[C@@H]3C2)cc1` [Example 136, 4-((3aS,6aS)-5-(4-(2-(2-Aminopyridin-3-yl)-5-phenyl-3H-imidazo[4,5-b]pyridin-3-yl)benzyl)octahydropyrrolo[3,4-c]pyrrole-2-carbonyl)-2-hydroxybenzaldehyde], for which the concentration for half-maximal inhibition (IC50) fell in the range of 60 to 600 nM.

In the case of `Nc1ncccc1-c1nc2ccc(-c3ccccc3)nc2n1-c1ccc(CN2CC3CCC(C2)N3C(=O)c2ccc(C=O)c(O)c2)cc1` [Example 109, 4-(3-(4-(2-(2-Aminopyridin-3-yl)-5-phenyl-3H-imidazo[4,5-b]pyridin-3-yl)benzyl)-3,8-diazabicyclo[3.2.1]octane-8-carbonyl)-2-hydroxybenzaldehyde], the half-maximal inhibitory concentration (IC50) was more than 600 nM.

In turn, `Nc1ncccc1-c1nc2ccc(-c3ccccc3)nc2n1-c1ccc(CN2CCC3(CCN(C(=O)c4ccc(C=O)c(O)c4)C3)C2)cc1` (centres unmarked) [Example 81, 4-(7-(4-(2-(2-Aminopyridin-3-yl)-5-phenyl-3H-imidazo[4,5-b]pyridin-3-yl)benzyl)-2,7-diazaspiro[4.4]nonane-2-carbonyl)-2-hydroxybenzaldehyde] had a concentration for half-maximal inhibition (IC50) of 60 to 600 nM.

On to `CCN(C(=O)c1ccc(O)c(C=O)c1)C1CCN(Cc2ccc(-n3c(-c4cccnc4N)nc4ccc(-c5ccccc5)nc43)cc2)CC1` [Example 13, N-(1-(4-(2-(2-Aminopyridin-3-yl)-5-phenyl-3H-imidazo[4,5-b]pyridin-3-yl)benzyl)piperidin-4-yl)-N-ethyl-3-formyl-4-hydroxybenzamide], for which the half-inhibitory concentration (IC50) lay within 60 to 600 nM.

Turning to `Nc1ncccc1-c1nc2ccc(-c3ccccc3)nc2n1-c1ccc(CN2CCC3(C2)CN(C(=O)c2ccc(C=O)c(O)c2)C3)cc1` [Example 153, 4-(6-(4-(2-(2-aminopyridin-3-yl)-5-phenyl-3H-imidazo[4,5-b]pyridin-3-yl)benzyl)-2,6-diazaspiro[3.4]octane-2-carbonyl)-2-hydroxybenzaldehyde], the 50% inhibitory concentration (IC50) fell in the range of 60 to 600 nM.

`Nc1ncccc1-c1nc2ccc(-c3ccccc3)nc2n1-c1ccc(CN2CCC3(CCN(C(=O)c4ccc(O)c(C=O)c4)CC3)C2)cc1` [Example 84, 5-(2-(4-(2-(2-Aminopyridin-3-yl)-5-phenyl-3H-imidazo[4,5-b]pyridin-3-yl)benzyl)-2,8-diazaspiro[4.5]decane-8-carbonyl)-2-hydroxybenzaldehyde]: the IC50 is 60 to 600 nM.

For `Nc1ncccc1-c1nc2ccc(-c3ccccc3)nc2n1-c1ccc(CN2CCC3(CC2)CN(c2ccc(C=O)c(O)c2)C3)cc1` [Example 73, 4-(7-(4-(2-(2-Aminopyridin-3-yl)-5-phenyl-3H-imidazo[4,5-b]pyridin-3-yl)benzyl)-2,7-diazaspiro[3.5]nonan-2-yl)-2-hydroxybenzaldehyde], the 50% inhibitory concentration (IC50) is 60 to 600 nM.

As to `Nc1ncccc1-c1nc2ccc(N3CCOCC3)nc2n1-c1ccc(CN2CCN(C(=O)c3ccc(O)c(C=O)c3)CC2)cc1` [Example 32, 5-(4-(4-(2-(2-Aminopyridin-3-yl)-5-morpholino-3H-imidazo[4,5-b]pyridin-3-yl)benzyl)piperazine-1-carbonyl)-2-hydroxybenzaldehyde], the IC50 is more than 600 nM.

The molecule `Nc1ncccc1-c1nc2ccc(-c3ccccc3)nc2n1-c1ccc(CN2CC3(CC(NC(=O)c4ccc(C=O)c(O)c4)C3)C2)cc1` [Example 70, N-(2-(4-(2-(2-Aminopyridin-3-yl)-5-phenyl-3H-imidazo[4,5-b]pyridin-3-yl)benzyl)-2-azaspiro[3.3]heptan-6-yl)-4-formyl-3-hydroxybenzamide] displayed a half-inhibitory concentration (IC50) of 60 to 600 nM.

As for `CN(C(=O)c1ccc(O)c(C=O)c1)C1CCN(Cc2ccc(-n3c(-c4cccnc4N)nc4ccc(-c5ccccc5)nc43)cc2)CC1` [Example 55, N-(1-(4-(2-(2-Aminopyridin-3-yl)-5-phenyl-3H-imidazo[4,5-b]pyridin-3-yl)benzyl)piperidin-4-yl)-3-formyl-4-hydroxy-N-methylbenzamide], the half-maximal inhibitory concentration (IC50) is 15 to 60 nM.

Molecule `Nc1ncccc1-c1nc2ccc(-c3ccccc3)nc2n1-c1ccc(CN2CC3CCC2CN3C(=O)c2ccc(O)c(C=O)c2)cc1` (centres unmarked) [Example 126, 5-(5-(4-(2-(2-Aminopyridin-3-yl)-5-phenyl-3H-imidazo[4,5-b]pyridin-3-yl)benzyl)-2,5-diazabicyclo[2.2.2]octane-2-carbonyl)-2-hydroxybenzaldehyde] gave an IC50 of 60 to 600 nM.

On to `Nc1ncccc1-c1nc2ccc(-c3ccccc3)nc2n1-c1ccc(CN2CCN(C(=O)c3ccc(C=O)c(O)c3)CC2)cc1` [Example 6, 4-(4-(4-(2-(2-Aminopyridin-3-yl)-5-phenyl-3H-imidazo[4,5-b]pyridin-3-yl)benzyl)piperazine-1-carbonyl)-2-hydroxybenzaldehyde], for which the half-maximal inhibitory concentration (IC50) is 60 to 600 nM.

`Nc1ncccc1-c1nc2ccc(C3=CCCCC3)nc2n1-c1ccc(CN2CCN(C(=O)c3ccc(C=O)c(O)c3)CC2)cc1` [Example 151, 4-(4-(4-(2-(2-aminopyridin-3-yl)-5-(cyclohex-1-en-1-yl)-3H-imidazo[4,5-b]pyridin-3-yl)benzyl)piperazine-1-carbonyl)-2-hydroxybenzaldehyde] gave an IC50 of more than 600 nM.

`Nc1ncccc1-c1nc2ccc(-c3ccccc3)nc2n1-c1ccc(CN2CCC(N(C(=O)c3ccc(O)c(C=O)c3)C3CC3)CC2)cc1` [Example 12, N-(1-(4-(2-(2-aminopyridin-3-yl)-5-phenyl-3H-imidazo[4,5-b]pyridin-3-yl)benzyl)piperidin-4-yl)-N-cyclopropyl-3-formyl-4-hydroxybenzamide] registered a half-inhibitory concentration (IC50) of 60 to 600 nM.

`Nc1ncccc1-c1nc2ccc(C3=CCCCC3)nc2n1-c1ccc(CN2CCN(C(=O)c3ccc(O)c(C=O)c3)CC2)cc1` [Example 150, 5-(4-(4-(2-(2-aminopyridin-3-yl)-5-(cyclohex-1-en-1-yl)-3H-imidazo[4,5-b]pyridin-3-yl)benzyl)piperazine-1-carbonyl)-2-hydroxybenzaldehyde]: the IC50 is 60 to 600 nM.

On to `Nc1ncccc1-c1nc2ccc(-c3ccccc3)nc2n1-c1ccc(CN2CC(NC(=O)c3ccc(O)c(C=O)c3)C2)cc1` [Example 61, N-(1-(4-(2-(2-Aminopyridin-3-yl)-5-phenyl-3H-imidazo[4,5-b]pyridin-3-yl)benzyl)azetidin-3-yl)-3-formyl-4-hydroxybenzamide], for which the IC50 was in the range of 15 to 60 nM.

Molecule `Nc1ncccc1-c1nc2ccc(-c3ccccc3)nc2n1-c1ccc(CN2CC3(CCN(C(=O)c4ccc(C=O)c(O)c4)C3)C2)cc1` [Example 93, 4-(2-(4-(2-(2-Aminopyridin-3-yl)-5-phenyl-3H-imidazo[4,5-b]pyridin-3-yl)benzyl)-2,6-diazaspiro[3.4]octane-6-carbonyl)-2-hydroxybenzaldehyde] yielded an IC50 of 60 to 600 nM.

The molecule `Nc1ncccc1-c1nc2ccc(-c3ccc(F)cc3)nc2n1-c1ccc(CN2CCN(C(=O)c3ccc(O)c(C=O)c3)CC2)cc1` [Example 143, 5-(4-(4-(2-(2-Aminopyridin-3-yl)-5-(4-fluorophenyl)-3H-imidazo[4,5-b]pyridin-3-yl)benzyl)piperazine-1-carbonyl)-2-hydroxybenzaldehyde] displayed an IC50 of 60 to 600 nM.

In the case of `Nc1ncccc1-c1nc2ccc(N3CCOCC3)nc2n1-c1ccc(CN2CCC(NC(=O)c3ccc(C=O)c(O)c3)CC2)cc1` [Example 53, N-(1-(4-(2-(2-Aminopyridin-3-yl)-5-morpholino-3H-imidazo[4,5-b]pyridin-3-yl)benzyl)piperidin-4-yl)-4-formyl-3-hydroxybenzamide], the concentration for half-maximal inhibition (IC50) is 60 to 600 nM.

Take `Nc1ncccc1-c1nc2cc(-c3ccccc3)cnc2n1-c1ccc(CN2CCN(c3ccc(C=O)c(O)c3)CC2)cc1` [Example 54, 4-(4-(4-(2-(2-Aminopyridin-3-yl)-6-phenyl-3H-imidazo[4,5-b]pyridin-3-yl)benzyl)piperazin-1-yl)-2-hydroxybenzaldehyde]: the IC50 was 60 to 600 nM.

Consider `Nc1ncccc1-c1nc2ccc(-c3ccccc3)nc2n1-c1ccc(CN2CC(NC(=O)c3ccc(C=O)c(O)c3)C2)cc1` [Example 65, N-(1-(4-(2-(2-Aminopyridin-3-yl)-5-phenyl-3H-imidazo[4,5-h]pyridin-3-yl)benzyl)azetidin-3-yl)-4-formyl-3-hydroxybenzamide], for which the IC50 was 15 to 60 nM.

In turn, `Nc1ncccc1-c1nc2ccc(-c3ccccc3)nc2n1-c1ccc(CN2CC3CCC(C2)N3C(=O)c2ccc(O)c(C=O)c2)cc1` [Example 110, 5-(3-(4-(2-(2-Aminopyridin-3-yl)-5-phenyl-3H-imidazo[4,5-b]pyridin-3-yl)benzyl)-3,8-diazabicyclo[3.2.1]octane-8-carbonyl)-2-hydroxybenzaldehyde] came in with an IC50 of more than 600 nM.
